How the values were obtained:
Assay type in all cases: in vivo
saw tooth grain beetles = experiment: Repellency of test compounds on grain beetles, treated corn kernels; conditions: 5% in isopropyl alcohol, 3 week period
Protocol: Ten replicates of 30 kernels of corn are immersed into the test compound and allowed to dry for 24 hours. The kernels are then transferred to a test container, and 10 saw tooth grain beetles are released. Test containers are secured and left for a 3 week period. At the end of this time, the […] grains are examined for feeding damage. […] Ten additional replicates treated with isopropyl alcohol are prepared to serve as controls.

granary weevils = experiment: Granary weevil test on treated wheat kernels; conditions: 5% in isopropyl alcohol, 3 week period
Protocol: Ten replicates of 30 kernels of wheat were immersed into the test compound and allowed to dry for 24 hours. The grains were then transferred to a test container, and 10 granary weevils were released. Test containers were secured and left for a 3 week period. At the end of this time, the wheat grains were examined for developing larvae and damage by larvae. […] Ten additional replicates treated with isopropyl alcohol were prepared to serve as controls.

Codling Moth larvae = experiment: Repellency as feeding deterrence and mortality in Codling Moth larvae on treated media
Protocol: Another test was designed to measure the repellency as feeding deterrence in Codling Moth larvae. The treatment was applied to the surface of a proprietary laboratory media in a tray with wells for each compound. The media was allowed to dry for 30-60 minutes so that larvae were not exposed to it as a liquid. One first instar codling moth larva was then placed on the treated media. The cover film was placed on the tray to prevent escapes. Ten additional replicates treated with a 57% ethanol solution were prepared to serve as controls. […] After the 24 hour reading, the larvae were extracted from the media to record any mortality.
Mortality observations were also made for the above protocol. The control was the 57% ethanol:43% water solution.

psyllids = experiment: Psyllid repellency on potato choice assays; conditions: 3% compound; potato plants; 100 psyllids per cage; control 50/50
From the text: Psyllid Repellency on Potato Choice Assays
(§1) Potato plants are sprayed with either a 3% solution of repellent chemical in a 5%:95% ETOH:Water or only 5%:95% ETOH:Water as a control. Two plants are placed in a screen cage, either a treatment vs control tree or a control vs control tree, 100 psyllids are released into each cage. The number of psyllids choosing each leaf is counted for both choice tests. The number of psyllids choosing each treatment is compared to the control to determine if there is a repellent effect.

Aphis gossypii = experiment: Melon aphid repellency on leaf choice assays; conditions: 3% compound in a Triton X:Water solution; n=100; control 50/50
From the text: Melon Aphid Repellency on Leaf Choice Assays Aphis gossypii are maintained on squash plants. Individual aphids (n=100) are given the choice between leaves with and without repellent treatments. A separate group of aphids are given a choice between untreated vs. untreated leaves as a control. The number of aphids choosing each leaf is counted both choice tests. The number of aphids choosing each treatment is compared to the control to determine the repellent effect.

sharpshooters = experiment: Leafhopper repellency on citrus choice assays; conditions: 3% compound; citrus seedlings; 100 sharpshooters per cage; control 50/50
From the text: as §1, with “Leafhopper Repellency on Citrus Choice Assays Citrus seedlings” for “Potato plants”, “seedlings” for “plants”, “tree.” for “tree,”, “sharpshooters” for “psyllids”

Tineola spp. = experiment: Clothes moth feeding damage on silk fabric, choice test; conditions: 3% compound; silk disks; late instar larvae; 24 hours; control 50/50
Protocol: For feeding assays, 3% alcohol solutions of the tested compounds are prepared. Disks (2.0 cm in diameter) of undyed silk fabric are dipped in the test solutions or alcohol alone as a control. After the complete evaporation of the solvent, the disks are presented in a choice test to 10 late instar Tineola spp. larvae. All dishes are placed in an incubator in the dark. Four replicates are used for each chemical. After 24 hours, the number of individuals choosing to feed on each disk are counted.

Plodia interpunctella = experiment: Feeding repellent assay for Indian meal moth larva on treated rice; conditions: 10% compound in a 5% Ethanol:95% water solution, third instar larvae, 1 week
Protocol: (§2) Feeding Repellent Assay for Indian Meal Moth Larva One gram of rice is weighed and treated with 2% by weight of each test chemical or ethanol as a control for each treatment and replicate. The grains are allowed to dry and then weighed again. Treated or control rice grains are placed in a petri dish. Third instar larvae are starved for 8 h and gently introduced into the center of each compartment. 20 larva are screened per treatment, and each experiment is repeated three times. The weight of rice grains is measured again after 1 week. The selective antifeeding rate (%) formula is [(C−T)/(C+T)]×100, and the non-selective antifeeding rate (%) formula is [(C−T)/C)]×100, where C and T are the areas consumed by the control and treated leaf disks, respectively.

Sitostroga cerealella = experiment: Feeding repellent assay for Angoumois larva on treated rice; conditions: 10% compound in a 5% Ethanol:95% water solution, third instar larvae, 1 week
Protocol: Feeding Repellent Assay for Angoumois Larva
as §2, with “One” for “Feeding Repellent Assay for Indian Meal Moth Larva One”

Dermestid spp. = experiment: Dermestid beetle feeding damage on silk fabric; conditions: 3% compound; undyed silk disks; late instar larvae; 1 week
Protocol: Dermestid Beetle Feeding Damage on Silk Fabric
For feeding assays, 3% alcohol solutions of the tested compounds are prepared. Disks (4.0 cm in diameter) of undyed silk fabric are dipped in the test solutions or alcohol alone as a control. After the complete evaporation of the solvent, the disks are offered to 10 late instar larvae. All dishes are placed in an incubator. Four replicates are used for each chemical. After 1 week, the remaining uneaten area of each silk disk is measured using a scanner and software. The selective antifeeding rate (%) formula is [(C−T)/(C+T)]×100, and the non-selective antifeeding rate (%) formula is [(C−T)/C)]×100, where C and T are the areas consumed by the control and treated silk disks, respectively.

Popillia japonica = experiment: Japanese beetle feeding damage on basil; conditions: 3% compound; basil leaf disks; adult beetle; 24 h
Protocol: (§3) Japanese Beetle Feeding Damage on Basil For choice feeding assays, 3% alcohol solutions of the tested compounds are prepared. Disks (4.0 cm in diameter) are cut from basil leaves and are dipped in the test solutions or alcohol alone as a control. After the complete evaporation of the solvent, the disks are offered to 1 adult beetle. All dishes are placed in an incubator. Four replicates are used for each chemical. After 24 h, the remaining uneaten area of each basil leaf disk is measured using a scanner and software. The selective antifeeding rate (%) formula is [(C−T)/(C+T)]×100, and the non-selective antifeeding rate (%) formula is [(C−T)/C)]×100, where C and T are the areas consumed by the control and treated leaf disks, respectively.

[1] = system: Euschistus heros-Neotropical Brown Stink Bugs; experiment: Stink bug feeding damage on soybean pods; conditions: 3% compound, soybean plants at R6 stage, 48 hours
Protocol: To compare the feeding/resting preference of stink bug adults for different plant parts, 10 pots with soybean plants at the R6 (pod-filling) stage of development are used. 5 pots of soybeans are sprayed with 3% of treatment in a 2% Triton X:water solution and 5 pots of soybean are treated with 2% Triton X:water solution as controls. Thirty stink bugs are placed individually in each cage and allowed to feed for 48 hours. Insects are removed and plant parts are collected for visual analysis of damage. Feeding damage on the pods is counted for both treatments. The selective antifeeding rate (%) formula is [(C−T)/(C+T)]×100, and the non-selective antifeeding rate (%) formula is [(C−T)/C)]×100, where C and T are the numbers of feeding damages on the control and treated plant pods, respectively.

[2] = system: Leptinotarsa decemlineata-Colorado Potatoe Beetles; experiment: Choice feeding assay on potato leaf disks; conditions: 3% compound, larvae, 24 h
Protocol: as §3, with “For” for “Japanese Beetle Feeding Damage on Basil For”, “potato” for “basil”, “10 larvae. Control and treated disks are placed at alternate corners in Petri dishes (150 by 20 mm) lined with moistened filter paper (choice test).” for “1 adult beetle.”, “replicates and 40 larva” for “replicates”, “chemical. In each replicate, the insects are allowed to feed ad libitum for 24 h at 24 C under a 16:8 (L:D) photoperiod.” for “chemical.”

[3] = system: brown marmorated stink bugs (BMSB); experiment: Repellency as feeding deterrence in brown marmorated stink bugs, treated filter paper with green bean; conditions: compound at 3.5% in a 57% Ethanol:43% water solution; control 38%
Protocol: A test was designed to measure the repellency as feeding deterrence in brown marmorated stink bugs (BMSB). Five replicates of 5 BMSBs were introduced into test arenas, containing one 60 mm×15 mm Petri dish with treated filter papers in which a food source (green bean) was attached, at the start of the test. The small Petri dishes containing the treated filter paper and food source were covered with a fitted Petri dish lid in between observation times, and were removed 5 minutes before each observation time to prevent stink bugs from feeding until sated. The distribution of the BMSBs was observed and documented hourly for 5 hours.

| SMILES | Increased Repellency vs. Control Repellency (saw tooth grain beetles) | Increased Mortality over Control Mortality (granary weevils) | Increased Repellency vs. Control Repellency (granary weevils) | Repellency at 24 hours (Codling Moth larvae; compound at 3.5% in a 57% Ethanol:43% water solution, first instar larva, control 8%) | Increased Mortality over Control Mortality at 24 hours (Codling Moth larvae; in vivo) | Number of Psyllids Choosing each Treatment: Treated (psyllids) | Number of Psyllids Choosing each Treatment: Untreated (psyllids) | Number of Aphids Choosing each Treatment: Treated (Aphis gossypii) | Number of Aphids Choosing each Treatment: Untreated (Aphis gossypii) | Number of Psyllids Choosing each Treatment: Treated (sharpshooters) | Number of Psyllids Choosing each Treatment: Untreated (sharpshooters) | Individuals choosing to feed on each disk: Treated (Tineola spp.) | Individuals choosing to feed on each disk: Untreated (Tineola spp.) | % Antifeedent Activity (Plodia interpunctella) | % Antifeedent Activity (Sitostroga cerealella) | % Repellency (Dermestid spp.) | % Repellency (Popillia japonica) | % Antifeedent Activity [1] | % Repellency [2] | Repellency averaged over 5 hours [3] |
| --- | --- | --- | --- | --- | --- | --- | --- | --- | --- | --- | --- | --- | --- | --- | --- | --- | --- | --- | --- | --- |
| CC1=CC(O)CC(CC(C)C)C1 (centres unmarked) [3-Methyl-5-Isobutyl-2-Cyclohexenol] | 85% | 93% | 86% |  |  |  |  |  |  |  |  |  |  |  |  |  |  |  |  |  |
| CCCC1CC(=O)C=C(C)C1 (centres unmarked) [3-Methyl-5-Propyl-2-Cyclohexenone] | 60% | 57% | 66% | 21% | 1% |  |  |  |  |  |  |  |  |  |  |  |  |  |  |  |
| CCCCCCCCCC1CCC(=O)O1 (centres unmarked) [Gamma Tridecalactone] | 40% |  | 40% |  |  | 20 | 80 | 20 | 80 | 20 | 80 | 10 | 90 | 70% | 70% | 40% | 40% | 80% | 40% |  |
| CCCCCC1C(=O)CCC1CC(=O)OC (centres unmarked) [Methyl Dihydrojasmonate] |  |  |  |  |  | 30 | 70 | 30 | 70 | 30 | 70 | 20 | 80 | 60% | 60% | 15% | 15% | 90% | 15% | 90% |
| CCCCCC1C(O)CCC1CC(=O)OC (centres unmarked) [Methyl dihydrojasmolate] |  |  |  |  |  | 30 | 70 | 30 | 70 | 30 | 70 | 20 | 80 | 60% | 60% | 15% | 15% | 90% | 15% |  |

Reference: patent US11224223B2, “Feeding deterrence of pests such as Hemiptera, Lepidoptera and Coleoptera” (BEDOUKIAN RESEARCH, INC., priority 2012, dated 2022)
